Experimental data from US8802702B2, “Compounds for reducing drug resistance and uses thereof” (The General Hospital Corporation, priority 2009, dated 2014).
Read-outs that look alike come from different tables or passages of the source.

Columns and labels:
KHOSR2 cells = test: Reversal of drug resistance, cytotoxicity assay in KHOSR2; type: cell-based, human; settings: for IC50: Homo sapiens
SKOV-3TR cells = test: Reversal of drug resistance, cytotoxicity (MTT) assay in SKOV-3TR; type: cell-based; settings: for IC50: Homo sapiens, SKOV3TR
Description: FIGS. 1 (a-b) are graphs that depict the effects of NSC23925 on drug sensitivity in ovarian cancer cells; 1(a) depicts the effects of NSC23925 on sensitive (SKOV-3) and resistant (SKOV-3TR) cells; 1(b) depicts the effects of NSC23925 on sensitive (OVCAR8) and resistant (OVCAR8TR) cells. […] The relative sensitivity of each line to paclitaxel was determined by MTT assay, as described below in the Examples section, 6 days post treatment. […]
Drug cytotoxicity was assessed in vitro using the MTT assay. SKOV-3 and SKOV-3TR cells were used herein. Briefly, 2×10^3 cells per well were plated in 96-well plates in culture medium (RPMI 1640 supplemented with 10% fetal bovine serum and penicillin/streptomycin) containing increasing concentrations of drug. […] The resulting formazan product was dissolved with acid-isopropanol and the absorbance at a wavelength of 490 nm (A490) was read on a SPECTRAmax® Microplate Spectrophotometer (Molecular Devices, Sunnyvale, Calif.). The absorbance values were normalized by assigning the value of the control line in the medium without drug to 1.0 and the value of the no cell control to 0. Experiments were performed in triplicate.

[1] = system: OVCAR8 and OVCAR8TR cells; test: Cytotoxicity of NSC23925 alone (MTT assay), OVCAR8/OVCAR8TR; type: cell-based, human
Description: Cells were treated with the NSC23925 in RPMI1640 complete media at the indicated concentrations. The relative sensitivity of each line to NSC23925 was determined by MTT assay. A: Nonspecific toxicity of NSC23925 on SKOV3 vs SKOV-3TR. B: Nonspecific toxicity of NSC23925 on OVCAR8 vs OVCAR8TR. Drug cytotoxicity was assessed in vitro using the MTT assay. SKOV-3 and SKOV-3TR cells were used herein. Briefly, 2×10^3 cells per well were plated in 96-well plates in culture medium (RPMI 1640 supplemented with 10% fetal bovine serum and penicillin/streptomycin) containing increasing concentrations of drug. After 7 days of culture, 10 μl MTT (5 mg/ml in PBS, obtained from Sigma) were added to each well and the plates were incubated for 4 h. The resulting formazan product was dissolved with acid-isopropanol and the absorbance at a wavelength of 490 nm (A490) was read on a SPECTRAmax® Microplate Spectrophotometer (Molecular Devices, Sunnyvale, Calif.). The absorbance values were normalized by assigning the value of the control line in the medium without drug to 1.0 and the value of the no cell control to 0. Experiments were performed in triplicate.

[2] = system: H69/AR cells (express MRP1, not Pgp1); test: Reversal of drug resistance in non-Pgp1 MDR cells expressing MRP1; type: cell-based, human
[3] = system: MCF-7 MX cells (express BCRP, not Pgp1); test: Reversal of drug resistance in non-Pgp1 MDR cells expressing BCRP; type: cell-based, human
Excerpt: Dr. Efstathios Gonos (Institute of Biological Research & Biotechnology, Athens, Greece) provided the doxorubicin resistant U-2OS R2 (referred in the text below as U-2OSDR), KHOS R2 cell lines. Dr. Stephen. Howell (The University of California Medical Center, San Diego) provided the cisplatin-resistant ovarian cancer IGROV1cp and 2008 cp70 cell lines. Dr. Erasmus Schneider (Wadsworth Center, Albany) provided the mitoxantrane resistant breast cancer MCF-7/MX cell line. Dr. Katia Scotlandi (Institute Orthopedics Rizzoli, Italy) provided ET-743 resistant TC-ET 6 nM and TC-ET 12 nM cell lines.

[4] = molecular target: purified recombinant human Pgp1 membrane protein (Homo sapiens, UniProt P08183)
Sequence of purified recombinant human Pgp1 membrane protein (P08183 whole entry): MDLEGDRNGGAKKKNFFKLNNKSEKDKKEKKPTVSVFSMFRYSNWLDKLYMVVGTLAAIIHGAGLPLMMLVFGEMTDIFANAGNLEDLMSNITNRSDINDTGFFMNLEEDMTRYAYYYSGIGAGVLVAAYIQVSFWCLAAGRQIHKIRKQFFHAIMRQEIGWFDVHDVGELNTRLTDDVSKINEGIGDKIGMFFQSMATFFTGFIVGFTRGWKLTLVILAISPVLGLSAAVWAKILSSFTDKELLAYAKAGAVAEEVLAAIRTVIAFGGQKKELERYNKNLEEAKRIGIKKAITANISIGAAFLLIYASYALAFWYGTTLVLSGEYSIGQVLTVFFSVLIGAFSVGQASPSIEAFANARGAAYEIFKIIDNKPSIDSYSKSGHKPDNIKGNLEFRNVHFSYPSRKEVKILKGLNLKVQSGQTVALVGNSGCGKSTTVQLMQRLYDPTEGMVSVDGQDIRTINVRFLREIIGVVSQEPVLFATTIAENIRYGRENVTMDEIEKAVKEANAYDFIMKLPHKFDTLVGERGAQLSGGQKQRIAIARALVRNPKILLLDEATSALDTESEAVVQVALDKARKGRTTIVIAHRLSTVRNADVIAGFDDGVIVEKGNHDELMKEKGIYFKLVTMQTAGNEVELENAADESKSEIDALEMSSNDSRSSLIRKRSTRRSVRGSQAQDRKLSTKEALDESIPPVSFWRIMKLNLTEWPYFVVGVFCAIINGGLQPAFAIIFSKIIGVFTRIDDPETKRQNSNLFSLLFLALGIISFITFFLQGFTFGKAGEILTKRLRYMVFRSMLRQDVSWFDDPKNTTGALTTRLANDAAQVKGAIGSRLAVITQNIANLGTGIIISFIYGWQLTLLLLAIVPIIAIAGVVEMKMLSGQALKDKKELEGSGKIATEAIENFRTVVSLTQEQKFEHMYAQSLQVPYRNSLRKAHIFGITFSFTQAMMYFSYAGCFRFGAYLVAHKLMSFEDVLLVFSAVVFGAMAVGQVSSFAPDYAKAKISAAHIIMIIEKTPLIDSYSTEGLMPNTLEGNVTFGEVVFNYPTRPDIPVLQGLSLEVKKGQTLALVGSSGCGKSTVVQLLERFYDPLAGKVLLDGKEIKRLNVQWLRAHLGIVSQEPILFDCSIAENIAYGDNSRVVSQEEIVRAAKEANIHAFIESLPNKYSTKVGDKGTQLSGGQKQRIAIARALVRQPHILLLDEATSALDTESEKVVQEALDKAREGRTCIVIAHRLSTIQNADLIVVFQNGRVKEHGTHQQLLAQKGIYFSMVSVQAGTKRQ
Description: Luminescence was read on a BMG LABTECH Polarstar Optima Luminometer. The decrease in luminescence of untreated samples compared to samples plus Na3VO4(ARLUbasal) represents basal Pgp1 ATPase activity. […] E: Effect of NSC23925 on expression of Pgp1 in paclitaxel resistant cells. The paclitaxel resistant cell line SKOV-3TR was treated with different concentration of NSC23925 for 48 h. Equal amounts (20 μg protein) of total cell lysates were used for each sample. Pgp1 expression was determined by Western blot as described in the Examples section below.
The Pgp-Glo™ Assay Systems (Promega) provide the necessary reagents for performing luminescent P-glycoprotein (Pgp)-ATPase assays. The ATPase assay provides a rapid, […], compound-independent measure of the concentration-dependence of any interaction of a drug with Ppg1. […] Luminescence was read on a BMG LABTECH Polarstar Optima Luminometer. The decrease in luminescence of NT samples compared to samples plus Na3VO4 (ΔRLUbasal) represents basal Pgp-ATPase activity.
Pgp-ATPase assay is a valuable screening tool for determining if a drug interacts with Pgp.

[5] = system: Pgp1 expression in SKOV-3TR cells; test: Pgp1 expression by Western blot; type: cell-based, human; settings: NSC23925 up to 10 μM for 48 h
[6] = Doxorubicin, add NSC23925 0.1 μM
[7] = Doxorubicin, add NSC23925 0.5 μM
[8] = Paclitaxel, add NSC23925 0.1 μM
[9] = Paclitaxel, add NSC23925 0.5 μM

Structure (SMILES): COc1ccc(-c2cc(C(O)C3CCCCN3)c3ccccc3n2)cc1 (stereo not drawn) [NSC23925, (2-(4-methoxyphenyl)quinolin-4-yl)(piperidin-2-yl)methanol]
- fold-reversal of drug resistance, KHOSR2 (KHOSR2 cells; [6]): (1.4) fold
- fold-reversal of drug resistance, KHOSR2 (KHOSR2 cells; [7]): (8.6) fold
- fold-reversal of drug resistance, KHOSR2 (KHOSR2 cells; Doxorubicin, add NSC23925 1 μM): (35) fold
- fold-reversal of drug resistance, KHOSR2 (KHOSR2 cells; ET-743, add NSC23925 0.1 μM): (1.2) fold
- fold-reversal of drug resistance, KHOSR2 (KHOSR2 cells; ET-743, add NSC23925 0.5 μM): (2.1) fold
- fold-reversal of drug resistance, KHOSR2 (KHOSR2 cells; ET-743, add NSC23925 1 μM): (3.2) fold
- IC50 (KHOSR2 cells; Doxorubicin, add NSC23925 0.1 μM, read-out: KHOSR2 IC50 of Doxorubicin): 7.36 ± 0.336 µM
- IC50 (KHOSR2 cells; Doxorubicin, add NSC23925 0.5 μM, read-out: KHOSR2 IC50 of Doxorubicin): 1.21 ± 0.461 µM
- IC50 (KHOSR2 cells; Doxorubicin, add NSC23925 1 μM, read-out: KHOSR2 IC50 of Doxorubicin): 0.292 ± 0.21 µM
- IC50 (KHOSR2 cells; ET-743, add NSC23925 0.1 μM, read-out: KHOSR2 IC50 of ET-743): 0.145 ± 0.045 µM
- IC50 (KHOSR2 cells; ET-743, add NSC23925 0.5 μM, read-out: KHOSR2 IC50 of ET-743): 0.083 ± 0.039 µM
- IC50 (KHOSR2 cells; ET-743, add NSC23925 1 μM, read-out: KHOSR2 IC50 of ET-743): 0.054 ± 0.034 µM
- IC50 (KHOSR2 cells; PM00104, add NSC23925 0.1 μM, read-out: KHOSR2 IC50 of PM00104): 0.113 ± 0.038 µM
- IC50 (KHOSR2 cells; PM00104, add NSC23925 0.5 μM, read-out: KHOSR2 IC50 of PM00104): 0.026 ± 0.014 µM
- IC50 (KHOSR2 cells; PM00104, add NSC23925 1 μM, read-out: KHOSR2 IC50 of PM00104): 0.008 ± 0.016 µM
- IC50 (KHOSR2 cells; Paclitaxel, add NSC23925 0.1 μM, read-out: KHOSR2 IC50 of Paclitaxel): 0.16 ± 0.016 µM
- IC50 (KHOSR2 cells; Paclitaxel, add NSC23925 0.5 μM, read-out: KHOSR2 IC50 of Paclitaxel): 0.12 ± 0.032 µM
- IC50 (KHOSR2 cells; Paclitaxel, add NSC23925 1 μM, read-out: KHOSR2 IC50 of Paclitaxel): 0.06 ± 0.02 µM
- fold-reversal of drug resistance, KHOSR2 (KHOSR2 cells; PM00104, add NSC23925 0.1 μM): (1.3) fold
- fold-reversal of drug resistance, KHOSR2 (KHOSR2 cells; PM00104, add NSC23925 0.5 μM): (5.5) fold
- fold-reversal of drug resistance, KHOSR2 (KHOSR2 cells; PM00104, add NSC23925 1 μM): (17.9) fold
- fold-reversal of drug resistance, KHOSR2 (KHOSR2 cells; [8]): (1.3) fold
- fold-reversal of drug resistance, KHOSR2 (KHOSR2 cells; [9]): (1.8) fold
- fold-reversal of drug resistance, KHOSR2 (KHOSR2 cells; Paclitaxel, add NSC23925 1 μM): (3.5) fold
- fold-reversal of drug resistance, SKOV-3TR (SKOV-3TR cells; [6]): (1.4) fold
- fold-reversal of drug resistance, SKOV-3TR (SKOV-3TR cells; [7]): (3.3) fold
- fold-reversal of drug resistance, SKOV-3TR (SKOV-3TR cells; Doxorubicin, add NSC23925 1 μM): (11.5) fold
- fold-reversal of drug resistance, SKOV-3TR (SKOV-3TR cells; ET-743, add NSC23925 0.1 μM): (0.8) fold
- fold-reversal of drug resistance, SKOV-3TR (SKOV-3TR cells; ET-743, add NSC23925 0.5 μM): (1) fold
- fold-reversal of drug resistance, SKOV-3TR (SKOV-3TR cells; ET-743, add NSC23925 1 μM): (1) fold
- IC50 (SKOV-3TR cells; Doxorubicin, add NSC23925 0.1 μM, read-out: SKOV-3TR IC50 of Doxorubicin): 16.5 ± 0.21 µM
- IC50 (SKOV-3TR cells; Doxorubicin, add NSC23925 0.5 μM, read-out: SKOV-3TR IC50 of Doxorubicin): 6.78 ± 0.16 µM
- IC50 (SKOV-3TR cells; Doxorubicin, add NSC23925 1 μM, read-out: SKOV-3TR IC50 of Doxorubicin): 1.94 ± 0.22 µM
- IC50 (SKOV-3TR cells; ET-743, add NSC23925 0.1 μM, read-out: SKOV-3TR IC50 of ET-743): 0.005 ± 0.002 µM
- IC50 (SKOV-3TR cells; ET-743, add NSC23925 0.5 μM, read-out: SKOV-3TR IC50 of ET-743): 0.004 ± 0.001 µM
- IC50 (SKOV-3TR cells; ET-743, add NSC23925 1 μM, read-out: SKOV-3TR IC50 of ET-743): 0.004 ± 0.001 µM
- IC50 (SKOV-3TR cells; PM00104, add NSC23925 0.1 μM, read-out: SKOV-3TR IC50 of PM00104): 0.005 ± 0.002 µM
- IC50 (SKOV-3TR cells; PM00104, add NSC23925 0.5 μM, read-out: SKOV-3TR IC50 of PM00104): 0.007 ± 0.001 µM
- IC50 (SKOV-3TR cells; PM00104, add NSC23925 1 μM, read-out: SKOV-3TR IC50 of PM00104): 0.005 ± 0.002 µM
- IC50 (SKOV-3TR cells; Paclitaxel, add NSC23925 0.1 μM, read-out: SKOV-3TR IC50 of Paclitaxel): 0.302 ± 0.056 µM
- IC50 (SKOV-3TR cells; Paclitaxel, add NSC23925 0.5 μM, read-out: SKOV-3TR IC50 of Paclitaxel): 0.132 ± 0.047 µM
- IC50 (SKOV-3TR cells; Paclitaxel, add NSC23925 1 μM, read-out: SKOV-3TR IC50 of Paclitaxel): 0.037 ± 0.028 µM
- fold-reversal of drug resistance, SKOV-3TR (SKOV-3TR cells; PM00104, add NSC23925 0.1 μM): (1.2) fold
- fold-reversal of drug resistance, SKOV-3TR (SKOV-3TR cells; PM00104, add NSC23925 0.5 μM): (0.9^ fold
- fold-reversal of drug resistance, SKOV-3TR (SKOV-3TR cells; PM00104, add NSC23925 1 μM): (1.2) fold
- fold-reversal of drug resistance, SKOV-3TR (SKOV-3TR cells; [8]): (1.03) fold
- fold-reversal of drug resistance, SKOV-3TR (SKOV-3TR cells; [9]): (2.4) fold
- fold-reversal of drug resistance, SKOV-3TR (SKOV-3TR cells; Paclitaxel, add NSC23925 1 μM): (8.4) fold
- Cytotoxic effect of NSC23925 alone in parental OVCAR8 ([1]; <5-10 μM NSC23925 alone, cells lack Pgp1): no cytotoxic effect
- IC50 ([1]; Homo sapiens, OVCAR-8, OVCAR8/OVCAR8TR, single agent, read-out: IC50 for NSC23925 (proliferation)): 25 µM
- Reversal of drug resistance in H69/AR cells [2]: unable to reverse drug resistance
- Reversal of drug resistance in MCF-7 MX cells [3]: unable to reverse drug resistance
- Stimulation of Pgp-ATPase activity [4]: > 30%
- Expression level of Pgp1 [5]: not affected
